According to patent US9974775B2, “Substituted imidazoles as N-type calcium channel blockers” (Janssen Pharmaceutica NV, priority 2013, dated 2018):
Like-named read-outs stand apart in the source and are kept apart here.

What was measured:
[1] = system: mechanical allodynia after L5/L6 spinal nerve ligation; assay: Sciatic nerve ligation (SNL) model of neuropathic pain; type: in vivo; conditions: rats; dose 50 mg/kg; response at Tmax
Text: Left L5 and L6 spinal nerves are isolated adjacent to the vertebral column and were ligated with 5-0 silk suture distal to the dorsal root ganglion, as described by Kim and Chung (1992). The incision was closed with the help of GLUture topical tissue adhesive. At 14 days post-surgery (one day prior to test compound administration), mechanical allodynia was quantified using eight von Frey filaments, calibrated in the range 0.4-15.1 g (Nielsen et al 2005). Rats were placed into individual plastic containers on top of a suspended wire mesh grid and acclimated to the test chambers for at least 15 min. Filaments were applied perpendicular to the mid-plantar paw surface, with enough force to cause slight buckling, and held in place for 6-8 sec until a response was noted as a sharp paw withdrawal, flinching, licking and/or biting immediately upon removal of the filament (Nielsen et al 2005). […] Test compounds of Formula (I) were administered and a response was measured at Tmax. The maximum possible effect (% MPE) was determined to be 100% if the sensitivity in the ipsilateral paw neared that of the contralateral paw. Values from vehicle-treated animals were considered 0%. The compound effect was determined based on these values.

human N-type Ca channel [2] = target: T1, human N-type Ca channel (Homo sapiens, UniProt Q00975); assay: Calcium influx assay (FDSS); type: cell-based; parameters: host or cells: HEK 293; conditions: HEK 293 cells, depolarized with 100 mM KCl
T1 sequence (Q00975 whole entry): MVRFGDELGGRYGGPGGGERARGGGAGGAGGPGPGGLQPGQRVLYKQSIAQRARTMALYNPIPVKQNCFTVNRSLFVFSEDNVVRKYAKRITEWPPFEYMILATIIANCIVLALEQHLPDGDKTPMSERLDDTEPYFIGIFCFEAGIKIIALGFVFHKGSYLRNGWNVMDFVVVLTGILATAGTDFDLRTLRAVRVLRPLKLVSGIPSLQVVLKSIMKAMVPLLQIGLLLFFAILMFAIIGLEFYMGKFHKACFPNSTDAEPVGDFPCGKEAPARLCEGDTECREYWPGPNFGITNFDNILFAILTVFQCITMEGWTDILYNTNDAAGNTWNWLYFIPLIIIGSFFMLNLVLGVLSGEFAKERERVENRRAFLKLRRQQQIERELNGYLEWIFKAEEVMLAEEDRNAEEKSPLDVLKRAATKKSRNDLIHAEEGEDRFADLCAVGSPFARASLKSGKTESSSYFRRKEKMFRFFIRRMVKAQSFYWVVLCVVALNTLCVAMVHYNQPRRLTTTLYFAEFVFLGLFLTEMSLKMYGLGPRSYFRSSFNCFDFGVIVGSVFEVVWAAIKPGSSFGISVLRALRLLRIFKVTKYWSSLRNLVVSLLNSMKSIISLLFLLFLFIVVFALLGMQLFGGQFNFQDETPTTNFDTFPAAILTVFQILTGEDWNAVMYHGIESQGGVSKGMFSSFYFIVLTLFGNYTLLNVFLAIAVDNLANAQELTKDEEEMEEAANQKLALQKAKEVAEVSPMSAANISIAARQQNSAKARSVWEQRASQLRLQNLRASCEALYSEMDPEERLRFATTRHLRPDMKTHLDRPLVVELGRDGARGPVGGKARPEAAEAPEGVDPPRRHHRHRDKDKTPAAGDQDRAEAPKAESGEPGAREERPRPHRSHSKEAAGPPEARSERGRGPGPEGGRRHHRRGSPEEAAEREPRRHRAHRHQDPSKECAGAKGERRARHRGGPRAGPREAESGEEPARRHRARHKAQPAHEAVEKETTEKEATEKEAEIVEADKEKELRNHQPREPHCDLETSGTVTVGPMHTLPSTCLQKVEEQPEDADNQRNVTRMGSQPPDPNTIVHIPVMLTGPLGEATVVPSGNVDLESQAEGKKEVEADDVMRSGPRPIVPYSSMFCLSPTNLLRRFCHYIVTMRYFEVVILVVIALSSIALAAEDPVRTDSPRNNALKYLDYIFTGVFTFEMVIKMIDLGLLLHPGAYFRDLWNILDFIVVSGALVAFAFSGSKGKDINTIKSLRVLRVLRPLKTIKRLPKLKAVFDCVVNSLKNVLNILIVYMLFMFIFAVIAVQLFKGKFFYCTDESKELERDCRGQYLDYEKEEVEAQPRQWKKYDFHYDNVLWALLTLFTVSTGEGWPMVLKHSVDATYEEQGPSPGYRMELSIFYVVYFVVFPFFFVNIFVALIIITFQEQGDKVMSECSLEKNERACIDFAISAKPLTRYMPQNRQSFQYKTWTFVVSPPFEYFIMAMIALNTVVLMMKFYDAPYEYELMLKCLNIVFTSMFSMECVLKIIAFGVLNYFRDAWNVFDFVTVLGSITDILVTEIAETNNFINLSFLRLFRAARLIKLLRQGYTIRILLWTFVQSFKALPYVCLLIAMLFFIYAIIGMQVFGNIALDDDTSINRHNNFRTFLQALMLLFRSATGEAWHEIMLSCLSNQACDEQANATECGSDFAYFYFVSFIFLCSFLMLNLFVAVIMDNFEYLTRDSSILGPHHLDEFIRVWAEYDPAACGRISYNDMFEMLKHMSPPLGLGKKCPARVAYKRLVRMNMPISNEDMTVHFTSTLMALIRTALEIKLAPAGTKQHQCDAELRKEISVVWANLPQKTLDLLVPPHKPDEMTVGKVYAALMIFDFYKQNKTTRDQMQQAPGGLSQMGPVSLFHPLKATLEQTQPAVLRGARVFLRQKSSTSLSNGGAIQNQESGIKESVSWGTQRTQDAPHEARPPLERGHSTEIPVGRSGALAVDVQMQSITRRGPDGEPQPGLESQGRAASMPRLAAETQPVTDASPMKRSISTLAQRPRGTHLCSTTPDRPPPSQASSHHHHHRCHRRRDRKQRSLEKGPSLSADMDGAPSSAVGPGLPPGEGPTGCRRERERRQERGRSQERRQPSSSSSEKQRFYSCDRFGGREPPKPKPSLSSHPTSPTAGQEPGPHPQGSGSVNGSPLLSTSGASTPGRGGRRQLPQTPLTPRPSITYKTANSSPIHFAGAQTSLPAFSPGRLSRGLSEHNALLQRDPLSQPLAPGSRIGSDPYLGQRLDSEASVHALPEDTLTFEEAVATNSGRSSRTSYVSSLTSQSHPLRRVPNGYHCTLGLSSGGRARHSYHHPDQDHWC
T1 sequence (P54284 whole entry partner): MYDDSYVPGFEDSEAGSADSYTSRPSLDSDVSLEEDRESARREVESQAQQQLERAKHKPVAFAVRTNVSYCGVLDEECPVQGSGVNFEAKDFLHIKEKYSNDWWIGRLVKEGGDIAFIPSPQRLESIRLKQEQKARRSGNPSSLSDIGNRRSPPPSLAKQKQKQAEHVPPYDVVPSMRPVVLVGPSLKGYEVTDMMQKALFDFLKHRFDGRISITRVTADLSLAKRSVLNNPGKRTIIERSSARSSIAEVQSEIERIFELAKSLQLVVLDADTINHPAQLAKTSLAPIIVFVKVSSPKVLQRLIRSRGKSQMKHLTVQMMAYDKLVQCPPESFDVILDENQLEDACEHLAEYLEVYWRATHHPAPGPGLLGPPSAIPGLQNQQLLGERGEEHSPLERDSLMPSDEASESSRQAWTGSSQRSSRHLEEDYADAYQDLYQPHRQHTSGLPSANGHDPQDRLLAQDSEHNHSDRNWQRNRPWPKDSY
T1 sequence (P54289 25-956 partner limits assumed): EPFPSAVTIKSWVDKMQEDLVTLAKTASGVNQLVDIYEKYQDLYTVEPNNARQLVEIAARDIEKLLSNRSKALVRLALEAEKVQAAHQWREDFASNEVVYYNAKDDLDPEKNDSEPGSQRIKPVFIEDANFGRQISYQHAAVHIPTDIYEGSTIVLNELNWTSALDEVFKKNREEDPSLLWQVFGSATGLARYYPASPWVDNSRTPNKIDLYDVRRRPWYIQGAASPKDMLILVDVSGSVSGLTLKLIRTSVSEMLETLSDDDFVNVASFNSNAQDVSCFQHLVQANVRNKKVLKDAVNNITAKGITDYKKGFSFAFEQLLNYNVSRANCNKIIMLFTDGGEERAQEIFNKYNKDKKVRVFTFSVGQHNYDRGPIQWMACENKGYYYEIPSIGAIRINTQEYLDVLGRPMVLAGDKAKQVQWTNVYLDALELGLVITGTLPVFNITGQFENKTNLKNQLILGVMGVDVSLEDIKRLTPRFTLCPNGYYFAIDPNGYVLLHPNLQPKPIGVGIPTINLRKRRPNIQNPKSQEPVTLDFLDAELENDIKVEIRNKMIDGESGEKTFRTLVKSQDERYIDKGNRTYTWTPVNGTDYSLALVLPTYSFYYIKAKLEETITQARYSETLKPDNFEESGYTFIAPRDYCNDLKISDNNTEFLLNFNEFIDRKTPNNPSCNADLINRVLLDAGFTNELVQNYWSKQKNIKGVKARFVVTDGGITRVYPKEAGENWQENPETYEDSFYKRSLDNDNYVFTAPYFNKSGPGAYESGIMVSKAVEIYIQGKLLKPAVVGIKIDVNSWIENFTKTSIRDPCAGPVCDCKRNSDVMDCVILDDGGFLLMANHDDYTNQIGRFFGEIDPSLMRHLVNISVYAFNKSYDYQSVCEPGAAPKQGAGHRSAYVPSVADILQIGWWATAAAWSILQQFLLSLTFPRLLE
T1 sequence (P54289 957-1103 partner limits assumed): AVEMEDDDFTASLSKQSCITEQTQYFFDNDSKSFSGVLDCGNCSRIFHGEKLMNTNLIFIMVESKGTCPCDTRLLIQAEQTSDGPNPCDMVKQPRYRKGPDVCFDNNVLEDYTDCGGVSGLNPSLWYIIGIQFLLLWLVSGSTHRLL
Method: All cell culture reagents were procured from HyClone and other reagents were from Fisher. Recombinant HEK 293 cells expressing human N-type Ca channel (Millipore) were maintained in DMEM F12 containing 10% FBS and selection antibiotics at 37° C. in 5% CO2.
Cells were incubated at 30° C. in 5% CO2 overnight. The medium was removed and cells were loaded with Fluo8 dye (AAT Bioquest) at 37° C. and 30° C., 30 min each in darkness. Cells were washed four times with wash buffer (16 mM Herep pH 7.2, 2 mM CaCl2, 1 mM MgCl2, 5 mM glucose, 140 mM choline chloride and 2 mM KCl) leaving 15 μL buffer after the last wash. Compounds of Formula (I), serially diluted, were added to the cell plate. The plates were incubated in darkness for 15 min. Cells were depolarized with 100 mM KCl and Ca influx was measured.

human N-type Ca channel [3] = target: T1, human N-type Ca channel; assay: Measurement of electrophysiological response (QPatch)
Method: The recombinant cell line described above was used in the measurement of electrophysiological properties with QPatch (Sophion). […] Prior to the experiment, the flasks were moved to 30° C. and incubated for 48-72 hrs. On the day of assaying, cells were detached and harvested. The cell pellet was re-suspended in SMF4HEK (HyClone)/25 mM HEPS at 2-5 million/mL and placed on the QStirrer of the QPatch for 30-60 min prior to the start of the assay. […] Microtiter-Plate/Reference Buffer contained 140 mM TEA-Cl, 10 mM BaCl2, 0.8 mM MgCl2, 10 mM HEPES pH˜7.4 adjusted with TEA-OH/HCl, and ˜300 mOsm. Cells were transferred to a QPatch 48 plate and gigaseal was formed. The plate was perfused with intracellular and extracellular buffer. […] In brief, cells were depolarized from resting potential of −80 mV to +20 mV and current was recorded. Data was plotted as percent inhibition vs concentration of the compound and IC50 values were generated using Graphpad Prism non-linear regression analysis.

[4] = read-out: Qpatch Pulse = 1 (percent inhibition)
[5] = concentration range 0.01-0.3 μM
[6] = N Type IC50 Data Qpatch Pulse = 1, Pulse = 1, concentration range 0.3-10 μM
[7] = N Type IC50 Data Qpatch Pulse = 15, Pulse = 15, concentration range 0.3-10 μM

IC50 (human N-type Ca channel [2]) [nM] | IC50 (human N-type Ca channel [3]; [7]) [nM] | SMILES | further results
– | – | COc1ccccc1-c1nc(C2CC(C)(C)OC(C)(C)C2)cn1-c1ccc(C#N)cc1 [Cpd 1, 4-(2-(2-methoxyphenyl)-4-(2,2,6,6-tetramethyltetrahydro-2H-pyran-4-yl)-1H-imidazol-1-yl)benzonitrile] | SNL(% MPE) [1]: 64.07 ± 12.31%
≥ 10000 | – | CC1(C)CC(c2cn(-c3ccc(C#N)cc3)c(C3CC3)n2)CC(C)(C)O1 [Cpd 57, 4-[2-Cyclopropyl-4-(2,2,6,6-tetramethyltetrahydro-2H-pyran-4-yl)-1H-imidazol-1-yl]benzonitrile] | –
488 | – | COc1ccccc1-c1nc(C2CC(C)(C)OC(C)(C)C2)cn1-c1ccc(F)c(C#N)c1 [Cpd 74, 2-Fluoro-5-[2-(2-methoxy-phenyl)-4-(2,2,6,6-tetramethyl-tetrahydro-pyran-4-yl)-imidazol-1-yl]-benzonitrile] | inhibition at 10 µM (human N-type Ca channel [3]; [4]): 36%; inhibition at 10 µM (human N-type Ca channel [3]; read-out: Qpatch Pulse = 15 (percent inhibition)): 44%
≥ 10000 | – | COc1cc(-n2cc(C3CC(C)(C)OC(C)(C)C3)nc2-c2cccnc2OC)ccc1C#N [Cpd 77, 2-Methoxy-4-[2-(2-methoxypyridin-3-yl)-4-(2,2,6,6-tetramethyltetrahydro-2H-pyran-4-yl)-1H-imidazol-1-yl]benzonitrile] | –
– | – | COc1nccnc1-c1nc(C2CC(C)(C)OC(C)(C)C2)cn1-c1ccc(C#N)c(F)c1 [Cpd 88, 2-fluoro-4-(2-(3-methoxypyrazin-2-yl)-4-(2,2,6,6-tetramethyltetrahydro-2H-pyran-4-yl)-1H-imidazol-1-yl)benzonitrile] | N Type IC50 Data Qpatch Pulse = 15 (human N-type Ca channel [3]; [5]): poor fit
– | – | CCOc1ncccc1-c1nc(C2CC(C)(C)OC(C)(C)C2)cn1-c1ccc(C#N)c(F)c1 [Cpd 89, 4-(2-(2-ethoxypyridin-3-yl)-4-(2,2,6,6-tetramethyltetrahydro-2H-pyran-4-yl)-1H-imidazol-1-yl)-2-fluorobenzonitrile] | N Type IC50 Data Qpatch Pulse = 15 (human N-type Ca channel [3]; [5]): poor fit
– | – | COc1ccccc1-c1nc(C2CC(C)(C)OC(C)(C)C2)c(C)n1-c1ccc(Cl)cc1 [Cpd 90, 1-(4-chlorophenyl)-2-(2-methoxyphenyl)-5-methyl-4-(2,2,6,6-tetramethyltetrahydro-2H-pyran-4-yl)-1H-imidazole] | N Type IC50 Data Qpatch Pulse = 1 (human N-type Ca channel [3]; Pulse = 1, concentration range 0.01-0.3 μM): poor fit; N Type IC50 Data Qpatch Pulse = 15 (human N-type Ca channel [3]; [5]): poor fit
≥ 10000 | – | COc1ccccc1-c1nc(C2CC(C)(C)OC(C)(C)C2)cn1S(=O)(=O)C1CC1 [Cpd 95, 1-(Cyclopropylsulfonyl)-2-(2-methoxyphenyl)-4-(2,2,6,6-tetramethyltetrahydro-2H-pyran-4-yl)-1H-imidazole] | –
– | – | COc1ccccc1-c1nc(C2CC(C)(C)OC(C)(C)C2)cn1S(=O)(=O)CC(C)C [Cpd 96, 2-(2-Methoxyphenyl)-1-[(2-methylpropyl)sulfonyl]-4-(2,2,6,6-tetramethyltetrahydro-2H-pyran-4-yl)-1H-imidazole] | IC50 (human N-type Ca channel [3]): ≥ 10000 nM
≥ 10000 | ≥ 10000 | COc1ccccc1-c1nc(C2CC(C)(C)OC(C)(C)C2)cn1Cc1cncnc1 [Cpd 100, 5-{[2-(2-Methoxyphenyl)-4-(2,2,6,6-tetramethyltetrahydro-2H-pyran-4-yl)-1H-imidazol-1-yl]methyl}pyrimidine] | IC50 (human N-type Ca channel [3]; [6]): ≥ 10000 nM
148 | 5030 | COc1ccccc1-c1nc(C2(O)CC(C)(C)OC(C)(C)C2)cn1-c1ccc(F)c(Br)c1 [Cpd 106, 4-[1-(3-Bromo-4-fluorophenyl)-2-(2-methoxyphenyl)-1H-imidazol-4-yl]-2,2,6,6-tetramethyltetrahydro-2H-pyran-4-ol] | inhibition at 10 µM (human N-type Ca channel [3]; [4]): 71%
1370 | – | COc1ncccc1-c1nc(C2(O)CC(C)(C)OC(C)(C)C2)cn1-c1ccc(F)c(C#N)c1 [Cpd 116, 2-Fluoro-5-[4-(4-hydroxy-2,2,6,6-tetramethyltetrahydro-2H-pyran-4-yl)-2-(2-methoxypyridin-3-yl)-1H-imidazol-1-yl]benzonitrile] | IC50 (human N-type Ca channel [3]; N Type IC50 Data Qpatch Pulse = 1, Pulse = 1, concentration range 0.01-1 μM): > 1000 nM; IC50 (human N-type Ca channel [3]; N Type IC50 Data Qpatch Pulse = 15, Pulse = 15, concentration range 0.01-1 μM): > 1000 nM
– | ≥ 10000 | COc1ccccc1-c1nc(C2(O)CC(C)(C)OC(C)(C)C2)cn1-c1ccc(C#N)c(F)c1 [Cpd 118, 2-Fluoro-4-[4-(4-hydroxy-2,2,6,6-tetramethyltetrahydro-2H-pyran-4-yl)-2-(2-methoxyphenyl)-1H-imidazol-1-yl]benzonitrile] | –
233 | 3300 | COc1ccccc1-c1nc(C2CC(C)(C)OC(C)(C)C2)cn1-c1ccc(C#N)c(C(F)(F)F)c1 [Cpd 121, 4-[2-(2-Methoxyphenyl)-4-(2,2,6,6-tetramethyltetrahydro-2H-pyran-4-yl)-1H-imidazol-1-yl]-2-(trifluoromethyl)benzonitrile] | IC50 (human N-type Ca channel [3]; [6]): 6600 nM
234 | 1900 | COc1ccccc1-c1nc(C2=CC(C)(C)OC(C)(C)C2)cn1-c1ccc(C#N)c(F)c1 [Cpd 126, 2-Fluoro-4-[2-(2-methoxyphenyl)-4-(2,2,6,6-tetramethyl-3,6-dihydro-2H-pyran-4-yl)-1H-imidazol-1-yl]benzonitrile] | –
